{
  "source": "ChEMBL document CHEMBL5370556",
  "about": "“Optimization, and biological evaluation of 3-O-β-chacotriosyl betulinic acid amide derivatives as novel small-molecule Omicron” (Eur J Med Chem, 2023)",
  "assay_type_in_all_cases": "functional, organism-based",
  "key": {"SARS-CoV-2 [1]": {"system": "SARS-CoV-2", "experiment": "Antiviral activity against luciferase-expressing pseudovirus encoding SARS-CoV-2 Omicron expressing S protein L303A/E309A/R765A/K964A mutant infected in human 293T/ACE2 cells assessed as reduction of viral growth at 1.25 to 10 uM measured after 48 hrs by luciferase assay", "settings": "Severe acute respiratory syndrome coronavirus 2, dose 1.25-10 µM"}, "SARS-CoV-2 [2]": {"system": "SARS-CoV-2", "experiment": "Antiviral activity against luciferase-expressing pseudovirus encoding SARS-CoV-2 Omicron expressing S protein R765A/K964A mutant infected in human 293T/ACE2 cells assessed as reduction of viral growth measured after 48 hrs by luciferase assay", "settings": "Severe acute respiratory syndrome coronavirus 2"}, "SARS-CoV-2 [3]": {"system": "SARS-CoV-2", "experiment": "Antiviral activity against luciferase-expressing pseudovirus encoding SARS-CoV-2 Omicron expressing S protein L303A/E309A mutant infected in human 293T/ACE2 cells assessed as reduction of viral growth measured after 48 hrs by luciferase assay", "settings": "Severe acute respiratory syndrome coronavirus 2"}},
  "note": "The source made the active and inactive calls. The rule behind the calls is not given here.",
  "data": [
    {"compound": "C=C(C)[C@@H]1CC[C@]2(C(=O)Nc3ccc4ccccc4c3)CC[C@]3(C)[C@H](CC[C@@H]4[C@@]5(C)CC[C@H](O[C@@H]6O[C@H](CO)[C@@H](O[C@@H]7O[C@@H](C)[C@H](O)[C@@H](O)[C@H]7O)[C@H](O)[C@H]6O[C@@H]6O[C@@H](C)[C@H](O)[C@@H](O)[C@H]6O)C(C)(C)[C@@H]5CC[C@]43C)[C@@H]12", "values": [
      {"measurement": "Activity", "setting": "SARS-CoV-2 [1]", "result": "inactive"},
      {"measurement": "Activity", "setting": "SARS-CoV-2 [2]", "result": "Active"},
      {"measurement": "Activity", "setting": "SARS-CoV-2 [3]", "result": "Active"}
    ]}
  ]
}
